Results from patent US10993933B2, “Oral dosage forms of bendamustine” (ASTELLAS DEUTSCHLAND GMBH, priority 2010, dated 2021).
Where a name gives a salt, the structure may show the parent alone.

Key:
[1] = cited from earlier work
[2] = Solubility of bendamustine hydrochloride in water and organic solvents; assay type: physicochemical
From the text: Therefore it is not surprising that the oral bendamustine compositions, as investigated by Preiss et al. and Weber gave rise to relatively poor bioavailability results and a large inter-individual variability.

[3] = Bendamustine hydrochloride solubility in carriers (HPLC of supernatant); assay type: physicochemical
Method: Due to the necessity to determine if part of the bendamustine hydrochloride added to the vehicle is dissolved, in order to verify a possible degradation, an analytical procedure, from sample preparation to its analysis, was developed.
Essentially, it consisted in the preparation of a supersaturated solution of bendamustine hydrochloride in the oil: the minimum amount of bendamustine hydrochloride suitable to generate sedimentation of solid particle on the bottom of the vessel was added to the oil warmed at 40° C.; this solution was electromagnetically stirred for several days (about 4) at room temperature and then centrifuged at 3000 rpm for 15 minutes. The supernatant was analysed by HPLC versus a solution of bendamustine hydrochloride working standard (0,551 mg/ml).
Essentially, it consisted in the preparation of a supersaturated solution of bendamustine hydrochloride in the vehicle: the minimum amount of bendamustine hydrochloride suitable to generate sedimentation of solid particle on the bottom of the vessel was added to the oil heated to about 5° C. above its melting point; this solution was kept in static condition at this temperature overnight, to allow sedimentation on the bottom. The supernatant was analysed by HPLC versus a solution of API working standard (0.551 mg/ml).
In table 21.a below, the results of the analysis are reported expressed as mg of bendamustine hydrochloride completely dissolved in about 1 g of solution of the carrier selected.
Further samples for the solubility evaluation were prepared by adding, under stirring, a quantity of active ingredient (API) suitable to generate a phase segregation to a determined amount of each carrier. The samples were prepared at a temperature slightly above the melting point of each carrier (except for liquid vehicles) and kept at this temperature for about 5 hrs (estimated manufacturing process time). Where applicable, each sample was centrifuged to accelerate phase segregation; an amount of the supernatant, corresponding to the filling weight of a capsule (about 600 mg), was withdrawn and evaluated for assay to determine the amount of API actually dissolved.
Each solubility value is related to a specific temperature, corresponding to the value set for the filling into capsules (see table 14).

[4] = B6D2F1-mice, absorption from the gastro-intestinal tract; cited from earlier work
[5] = carrier CREMOPHOR A6 (Semisolid at room temperature), suspension weight 1015.3 mg
[6] = carrier CREMOPHOR A25 (Semisolid at room temperature), suspension weight 995.6 mg
[7] = carrier CREMOPHOR EL (Liquid at room temperature), suspension weight 1026.8 mg
[8] = carrier CREMOPHOR RH40 (Semisolid at room temperature), suspension weight 1000.4 mg
[9] = carrier LABRAFAC PG (Liquid at room temperature), suspension weight 1961.5 mg
[10] = carrier LABRAFIL M1944 CS (Liquid at room temperature), suspension weight 1011.7 mg
[11] = carrier LABRAFIL M2125 (Liquid at room temperature), suspension weight 765.2 mg
[12] = carrier LAUROGLYCOL 90 (Liquid at room temperature), suspension weight 993.9 mg
[13] = carrier LAUROGLYCOL FCC (Liquid at room temperature), suspension weight 1934.8 mg
[14] = carrier MIGLYOL 810 (Liquid at room temperature), suspension weight 602.8 mg
[15] = carrier MIGLYOL 812 (Liquid at room temperature), suspension weight 1044.1 mg
[16] = carrier MIGLYOL 829 (Liquid at room temperature), suspension weight 1865.0 mg
[17] = carrier MIGLYOL 840 (Liquid at room temperature), suspension weight 599.9 mg
[18] = carrier PLUROL oleique CC497 (Liquid at room temperature), suspension weight 1005.8 mg
[19] = carrier PLURONIC L44 NF INH (Liquid at room temperature), suspension weight 1987.1 mg
[20] = carrier SOFTIGEN 701 (Liquid at room temperature), suspension weight 1079.0 mg
[21] = carrier SOFTISAN 645 (Liquid at room temperature), suspension weight 1014.0 mg
[22] = carrier TRANSCUTOL HP (Liquid at room temperature), suspension weight 1003.1 mg

For `Cn1c(CCCC(=O)O)nc2cc(N(CCCl)CCCl)ccc21` [bendamustine hydrochloride], the mean oral bioavailability ([1]; 7 patients, oral capsules vs intravenous, 4.2-5.5 mg/kg) is given as 57%, the “time to maximal plasma levels after oral administration” value ([1]; patients, oral capsules of 25 mg, 250-350 mg) is given as ≤ 1 h and the “solubility in a range of organic solvents” value [2] is given as “slightly or very slightly soluble”. For the same compound, the “solubility in ethanol and methanol” value [2] was “good solubility”, the solubility in water ([2]; pH of 2.0) was “sparingly soluble” and the Solubility ([3]; carrier BRIJ C2 (Semisolid), T 45 ° C.) was 0.004 mg API/mg Solution. The Solubility ([3]; carrier BRIJ L4 (Liquid), T 25 ° C.) was 0.008 mg API/mg Solution, the Solubility ([3]; carrier BRIJ L23 (Solid), T 45 ° C.) was 0.004 mg API/mg Solution and the Solubility ([3]; carrier BRIJ O10 (Semisolid), T 45 ° C.) was 0.007 mg API/mg Solution. For the same compound, the Solubility ([3]; carrier BRIJ O20 (Semisolid), T 45 ° C.) was 0.006 mg API/mg Solution, the Solubility ([3]; carrier BRIJ S10 (Solid), T 42 ° C.) was 0.003 mg API/mg Solution and the Solubility ([3]; carrier BRIJ S20 (Solid), T 50 ° C.) was 0.008 mg API/mg Solution. For the same compound, the Solubility ([3]; carrier BRIJ S721 (Solid), T 45 ° C.) was 0.004 mg API/mg Solution, the “% API” value [3, 5] was 0.00% and the API recovered [3, 5] was 0.00 mg. For the same compound, the “% API” value [3, 6] was 0.21%, the API recovered [3, 6] was 2.10 mg and the “% API” value [3, 7] was 0.5%. For the same compound, the API recovered [3, 7] was 5.13 mg, the “% API” value [3, 8] was 0.77% and the API recovered [3, 8] was 7.72 mg. For the same compound, the Solubility ([3]; carrier GELUCIRE 44/14 (Semisolid), T 45 ° C.) was 0.004 mg API/mg Solution, the Solubility ([3]; carrier GLYCEROX HE (Liquid), T 25 ° C.) was 0.005 mg API/mg Solution and the “% API” value [3, 9] was 0.001%. For the same compound, the API recovered [3, 9] was 0.01 mg, the “% API” value [3, 10] was 0.04% and the API recovered [3, 10] was 0.38 mg. The “% API” value [3, 11] was 0.02%, the API recovered [3, 11] was 0.17 mg and the “% API” value [3, 12] was 0.06%. For the same compound, the API recovered [3, 12] was 0.61 mg, the “% API” value [3, 13] was 0.02% and the API recovered [3, 13] was 0.33 mg. The “% API” value [3, 14] was 0.01%, the API recovered [3, 14] was 0.04 mg and the “% API” value [3, 15] was 0.003%. The API recovered [3, 15] was 0.03 mg, the “% API” value [3, 16] was 0.001% and the API recovered [3, 16] was 0.03 mg. The “% API” value [3, 17] was 0.01%, the API recovered [3, 17] was 0.06 mg and the Solubility ([3]; carrier MIRJ S8 (Semisolid), T 42 ° C.) was 0.010 mg API/mg Solution. For the same compound, the Solubility ([3]; carrier MIRJ S40 (Solid), T 50 ° C.) was 0.005 mg API/mg Solution, the Solubility ([3]; carrier MIRJ S100 (Semisolid), T 50 ° C.) was 0.009 mg API/mg Solution and the “% API” value [3, 18] was 0.21%. For the same compound, the API recovered [3, 18] was 2.12 mg, the Solubility ([3]; carrier PLURONIC 103 (Semisolid), T 45 ° C.) was 0.002 mg API/mg Solution and the Solubility ([3]; carrier PLURONIC F108 (Solid), T 70 ° C.) was 0.006 mg API/mg Solution. The Solubility ([3]; carrier PLURONIC L35 (Liquid), T 25 ° C.) was 0.000 mg API/mg Solution, the Solubility ([3]; carrier PLURONIC L43 (Liquid), T 25 ° C.) was 0.000 mg API/mg Solution and the “% API” value [3, 19] was 0.18%. The API recovered [3, 19] was 3.64 mg, the Solubility ([3]; carrier PLURONIC L64 (Liquid), T 25 ° C.) was 0.000 mg API/mg Solution and the Solubility ([3]; carrier PLURONIC P85 (Semisolid), T 50 ° C.) was 0.002 mg API/mg Solution. The Solubility ([3]; carrier PLURONIC P105 (Semisolid), T 50 ° C.) was 0.002 mg API/mg Solution, the “% API” value [3, 20] was 0.29% and the API recovered [3, 20] was 5.42 mg. The “% API” value [3, 21] was 0.16%, the API recovered [3, 21] was 1.60 mg and the Solubility ([3]; carrier SOLUTOL HS15 (Semisolid), T 35 ° C.) was 0.007 mg API/mg Solution. For the same compound, the Solubility ([3]; carrier SPEZIOL TPGS (Semisolid), T 45 ° C.) was 0.002 mg API/mg Solution, the “% API” value [3, 22] was 1.00% and the API recovered [3, 22] was 10.01 mg. It also gave a Solubility ([3]; carrier TWEEN 20 (Liquid), T 25 ° C.) of 0.008 mg API/mg Solution, a Solubility ([3]; carrier TWEEN 40 (Liquid), T 25 ° C.) of 0.007 mg API/mg Solution and a Solubility ([3]; carrier TWEEN 61 (Semisolid), T 45 ° C.) of 0.019 mg API/mg Solution. For the same compound, the Solubility ([3]; carrier TWEEN 65 (Liquid), T 45 ° C.) was 0.007 mg API/mg Solution, the Solubility ([3]; carrier TWEEN 81 (Liquid), T 25 ° C.) was 0.004 mg API/mg Solution and the “bendamustine hydrochloride recovered in a supersaturated solution in liquid or semisolid oily vehicles” value ([3]; selected carriers) was < 1%. For the same compound, the bioavailability [4] was “about 40%”.
